pIC50: −log10 of the molar value. Values after ≈ are worked out from the molar mass of the structure shown. Values joined by “and” are separate entries in the source; they are usually repeats but may differ in a detail not shown here. Equal values may be shown once.
Legend:
[1] = tested on: F. tularensis Schu S4; assay type: cell-based, Francisella tularensis subspecies tularensis Schu S4
[2] = tested on: RAW 264.7 cells
[3] = tested on: F. tularensis Schu S4; test: microbe, parasite or virus in culture; assay type: cell-based, Francisella tularensis subspecies tularensis Schu S4; conditions: Francisella tularensis, SCHUS4
[4] = tested on: B. anthracis Sterne; conditions: cited from earlier work
[5] = target: NH3-dependent NAD^+ synthetase (nadE); conditions: read-out: enzymatic IC50; cited from earlier work

Compound	Growth Inhibition [1]	other results
Nc1nc(NC2CC2)c2ncn([C@H]3C=C[C@@H](CO)C3)c2n1 [Compound 1, [n]2(c3nc(nc(c3nc2)NC4CC4)N)[C@@H]1C[C@@H](C = C1)CO]	No	
O.O.O=C1NC(c2ccccc2)(c2ccccc2)C(=O)N1COP(=O)(O)O [Compound 2, [P]( = O)([O-])([O-])OCN1C( = O)NC(C1 = O)(c3ccccc3)c2ccccc2.O.O]	No	
CC(c1cc2ccccc2s1)N(O)C(N)=O (centres unmarked) [Compound 3, [s]1c2c(cc1C(N(O)C( = O)N)C)cccc2]	No	
Cc1ccc(-c2cc(C(F)(F)F)nn2-c2ccc(S(N)(=O)=O)cc2)cc1 [Compound 4, FC(F)(F)c1n[n](c(c1)c3ccc(cc3)C)c2ccc(cc2)[S]( = O)( = O)N]	No	
O=C1/C(=C\c2ccc(-n3ccnc3)cc2)Oc2cc(O)ccc21 [Compound 5, [n]4(cncc4)c1ccc(cc1)\C = C2\Oc3c(ccc(c3)O)C\2 = O]	showed activity against the bacteria and Yes	Toxicity [2]: non-toxic; MIC [3]: > 125 µg/mL
Cc1cc(CC(N)C(=O)O)on1 (centres unmarked) [Compound 6, NC(Cc1[o]nc(c1)C)C( = O)O]	No	
NC(Cc1ccc(Br)s1)C(=O)O (centres unmarked) [Compound 7, [s]1c(ccc1CC(N)C( = O)O)Br]	No	
C=C(O[C@@H]1C=C(C(=O)O)C=C[C@H]1O)C(=O)O [Compound 8, O([C@H]1[C@@H](C = CC( = C1)C( = O)O)O)C( = C)C( = O)O]	No	
O=C1NN(c2cccc(Br)c2)C(=O)/C1=C\c1ccc(-c2ccccc2C(=O)O)o1 [Compound 9, Brc1cc(ccc1)N2NC( = O)\C( = C\c3[o]c(cc3)c4c(cccc4)C( = O)O)\C2 = O]	No	
NC(=O)c1ccc(-c2ccc(/C=C3/C(=O)NN(c4ccc(F)cc4)C3=O)o2)cc1 [Compound 10, Fc1ccc(cc1)N2NC( = O)\C( = C\c3[o]c(cc3)c4ccc(cc4)C( = O)N)\C2 = O]	No	
COc1cc(C=O)ccc1OCc1ccccc1COc1ccc(/C=C2/SC(=S)NC2=O)cc1OC [Compound 11, S1\C( = C\c2cc(c(cc2)OCc3c(cccc3)COc4c(cc(cc4)C = O)OC)OC)\C( = O)NC1 = S]	No	
O=Cc1cnn2c(=O)c3ccccc3[nH]c12 [Compound 12, [n]21ncc(c2Nc3c(cccc3)C1 = O)C = O]	showed activity against the bacteria and Yes	MIC [3]: 63 µg/mL (≈ 296 µM)
Cc1nn2c(=O)c3ccccc3[nH]c2c1C=O [Compound 13, [n]21nc(c(c2Nc3c(cccc3)C1 = O)C = O)C]	showed activity against the bacteria and Yes	Toxicity [2]: non-toxic; MIC [3]: > 125 µg/mL and ~400 µM
Cc1cc(Nc2ccccc2)n(C(=O)c2ccc(Cl)cc2)n1 [Compound 14, Clc1ccc(cc1)C( = O)[n]2nc(cc2Nc3ccccc3)C]	showed activity against the bacteria and Yes	Reduction of growth versus no-compound control [1]: completely abolished bacterial growth; MIC [3]: 4 µg/mL (≈ 12.8 µM)
Nc1ccccc1CN1C(=O)c2ccccc2C1=O [Compound 15, N2(C( = O)c3c(cccc3)C2 = O)Cc1c(cccc1)N]	No	
N#Cc1ccc(Oc2ccccc2O)c(F)c1 [Compound 16, Fc1c(ccc(c1)C#N)Oc2c(cccc2)O]	No	
NC(=O)c1ccc(Oc2ccccc2O)c(F)c1 [Compound 17, Fc1c(ccc(c1)C( = O)N)Oc2c(cccc2)O]	No	
Cc1cc2ccccc2n1CC(=O)NCc1cccnc1N(C)C [Compound 18, [n]2(c3c(cc2C)cccc3)CC( = O)NCc1c(nccc1)N(C)C]	No	
Nc1nc(O)c2nc(CNc3ccc(C(=O)O)cc3)cnc2n1 [Compound 19, N(Cc2nc3c(nc(nc3O)N)nc2)c1ccc(cc1)C( = O)O]	No	
Nc1nc(N)c2nc(CNc3ccc(C(=O)O)cc3)cnc2n1 [Compound 20, N(Cc2nc3c(nc(nc3N)N)nc2)c1ccc(cc1)C( = O)[O-]]	No	

Compound	Growth Inhibition [1]	other results
NC(=O)c1nc[nH]c1C(N)=O [Compound 21, [nH]1cnc(c1C( = O)N)C( = O)N]	No	
O=[N+]([O-])c1ccc(NC2OC(CO)C(O)C(O)C2O)cc1 (centres unmarked) [Compound 22, [N+]( = O)([O-])c1ccc(cc1)NC2OC(C(C(C2O)O)O)CO]	No	
Cc1ccc(OC2OC(CO)C(O)C(O)C2O)cc1C (centres unmarked) [Compound 23, O1C(C(C(C(C1CO)O)O)O)Oc2cc(c(cc2)C)C]	No	
OCC1OC(Oc2ccc(Cl)cc2Cl)C(O)C(O)C1O (centres unmarked) [Compound 24, Clc1c(ccc(c1)Cl)OC2OC(C(C(C2O)O)O)CO]	showed activity against the bacteria and Yes	Toxicity [2]: non-toxic; MIC [3]: > 125 µg/mL and ~400 µM
CCOc1ccc(NC2OC(CO)C(O)C(O)C2O)cc1 (centres unmarked) [Compound 25, N(C2OC(C(C(C2O)O)O)CO)c1ccc(cc1)OCC]	No	
OCC1OC(Nc2ccccc2)C(O)C(O)C1O (centres unmarked) [Compound 26, N(C2OC(C(C(C2O)O)O)CO)c1ccccc1]	No	
O[C@@H]1[C@@H](O)[C@H](Nc2ccc(Br)cc2)OC[C@H]1O [Compound 27, Brc1ccc(cc1)N[C@@H]2OC[C@H]([C@@H]([C@H]2O)O)O]	No	
NC(=O)c1ncn([C@@H]2O[C@H](CO)[C@@H](O)[C@H]2O)c1O [Compound 28, [n]2(cnc(c2O)C( = O)N)[C@@H]1O[C@@H]([C@H]([C@H]1O)O)CO]	No	
Cc1ccc(NC2OCC(O)C(O)C2O)cc1 (centres unmarked) [Compound 29, N(C2OCC(C(C2O)O)O)c1ccc(cc1)C]	No	
NC(=O)c1ncn([C@@H]2O[C@H](CO)C(O)C2O)c1N (some centres unmarked) [Compound 30, [n]2(cnc(c2N)C( = O)N)[C@@H]1O[C@@H](C(C1O)O)CO]	No	
CCOC(=O)c1cc2c(nc1C(=O)OCC)CCCC2=O [Compound 31, n1c2c(cc(c1C( = O)OCC)C( = O)OCC)C( = O)CCC2]	No	
NC(=O)COc1cccnc1C(=O)O [Compound 32, NC( = O)COc1c(nccc1)C( = O)O]	No	
COc1ccc([C@@H]2CC(=O)c3c(O)cc(O)cc3O2)cc1O [Compound 33, O1[C@@H](CC( = O)c3c1cc(cc3O)O)c2cc(c(cc2)OC)O]	No	
CC(C)[C@H](N)C(=O)OCCOCn1cnc2c(O)nc(N)nc21 [Compound 34, [n]1(c2nc(nc(c2nc1)O)N)COCCOC( = O)[C@@H](N)C(C)C]	No	
O=[N+]([O-])c1ccc(O)c(/C=N/c2cccc(O)c2)c1 [Compound 35, [N+]( = O)([O-])c1cc(c(cc1)O)\C = N\c2cc(ccc2)O]	showed activity against the bacteria and Yes	Reduction of growth versus no-compound control [1]: completely abolished bacterial growth; MIC [4]: > 387 µM; MIC [3]: 32 µg/mL (≈ 124 µM); pIC50 [5]: 5.60
O=C(Cn1cc(/C=C/c2nc(O)nc(O)c2[N+](=O)[O-])c2ccccc21)Nc1ccc(F)cc1 [Compound 36, Fc1ccc(cc1)NC( = O)C[n]2c3c(c(c2)\C = C\c4nc(nc(c4[N+]( = O)[O-])O)O)cccc3]	No	
CC1(C)S[C@@H]2[C@H](NC(=O)COc3ccccc3)C(=O)N2[C@H]1C(=O)O [Compound 37, S1[C@H]2N([C@H](C1(C)C)C( = O)[O-])C( = O)[C@H]2NC( = O)COc3ccccc3]	No	
CC1=CC(O)(c2ccccc2)N(C(=O)c2ccncc2)N1 (centres unmarked) [Compound 39, N2(NC( = CC2(O)c3ccccc3)C)C( = O)c1ccncc1]	No	
COc1ccc(C2(O)C=C(C)NN2C(=O)c2ccccc2)cc1 (centres unmarked) [Compound 40, N2(NC( = CC2(O)c3ccc(cc3)OC)C)C( = O)c1ccccc1]	No	
N2(NC( = CC2(O)c3cc(ccc3)OC)CC)C( = O)c1ccccc1 [Compound 38]	No	
